The experiment concerns CD2F1 mice, L1210 leukemia ip, survival T/C. Description: NCI In Vivo Anticancer Drug Screen. Data for tumor model L1210 Leukemia (intraperitoneal) in CD2F1 (CDF1) mice. The note with it: higher = longer survival. In outline:
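Each value reflects a quotient of treated over vehicle control outcomes in mice with a transplanted tumor.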

The mark [1] stands for this setting: endpoint: mean survival time, dose: 100.0 mg/kg/injection, schedule: Q01DX001 (ip), vehicle: saline with Tween-80.
Where [2] appears, read: endpoint: mean survival time, dose: 200.0 mg/kg/injection, schedule: Q01DX001 (ip), vehicle: saline with Tween-80.
Where [3] appears, read: endpoint: mean survival time, dose: 50.0 mg/kg/injection, schedule: Q01DX009 (ip), vehicle: saline with Tween-80.
The mark [4] stands for this setting: endpoint: mean survival time, dose: 100.0 mg/kg/injection, schedule: Q01DX009 (ip), vehicle: saline with Tween-80.
[5] abbreviates: endpoint: mean survival time, dose: 200.0 mg/kg/injection, schedule: Q01DX009 (ip), vehicle: saline with Tween-80.
The mark [6] stands for this setting: endpoint: mean survival time, dose: 100.0 mg/kg/injection, schedule: Q04DX002 (ip), vehicle: saline with Tween-80.
Setting [7] is: endpoint: mean survival time, dose: 200.0 mg/kg/injection, schedule: Q04DX002 (ip), vehicle: saline with Tween-80.
Where [8] appears, read: endpoint: mean survival time, dose: 400.0 mg/kg/injection, schedule: Q04DX002 (ip), vehicle: saline with Tween-80.
The mark [9] stands for this setting: endpoint: mean survival time, dose: 75.0 mg/kg/injection, schedule: Q01DX001 (ip), vehicle: other.
The mark [10] stands for this setting: endpoint: mean survival time, dose: 150.0 mg/kg/injection, schedule: Q01DX001 (ip), vehicle: other.
Setting [11] is: endpoint: mean survival time, dose: 300.0 mg/kg/injection, schedule: Q01DX001 (ip), vehicle: other.
Where [12] appears, read: endpoint: mean survival time, dose: 100.0 mg/kg/injection, schedule: Q04DX002 (ip), vehicle: saline.
[13] abbreviates: endpoint: mean survival time, dose: 200.0 mg/kg/injection, schedule: Q04DX002 (ip), vehicle: saline.
[14] abbreviates: endpoint: mean survival time, dose: 400.0 mg/kg/injection, schedule: Q04DX002 (ip), vehicle: saline.

SMILES strings stand for the structures. “And” between values parts separate entries of the source, which are not always exact repeats. Identical values can stand only once. Toxic doses and inconclusive results are not listed.

Regarding `COC(=O)C(CC(C)C)NC(=O)c1ccccc1` (stereo unspecified), the T/C (endpoint: mean survival time, dose: 100.0 mg/kg/injection, schedule: Q04DX003 (ip), vehicle: saline with Tween-80) was 98 % of control; the T/C (endpoint: mean survival time, dose: 200.0 mg/kg/injection, schedule: Q04DX003 (ip), vehicle: saline with Tween-80) was 97 % of control; the T/C (endpoint: mean survival time, dose: 400.0 mg/kg/injection, schedule: Q04DX003 (ip), vehicle: saline with Tween-80) was 95 % of control.
In the case of `COc1ccc(CC(N)C(=O)NC2C(CO)OC(n3cnc4c(N)ncnc43)C2O)cc1` (stereo unspecified), the T/C (endpoint: mean survival time, dose: 75.0 mg/kg/injection, schedule: Q01DX001 (ip), vehicle: saline) was 100 % of control; the T/C (endpoint: mean survival time, dose: 150.0 mg/kg/injection, schedule: Q01DX001 (ip), vehicle: saline) was 95 % of control; the T/C (endpoint: mean survival time, dose: 300.0 mg/kg/injection, schedule: Q01DX001 (ip), vehicle: saline) is 100 % of control.
For the molecule `Cc1ccc(S(=O)(=O)OCC(O)C(O)C(O)C(O)COS(=O)(=O)c2ccc(C)cc2)cc1` (stereo unspecified), the T/C by setting is: (endpoint: mean survival time, dose: 50.0 mg/kg/injection, schedule: Q01DX001 (ip), vehicle: saline with Tween-80) 96 % of control; under setting [1], 96 % of control; under setting [2], 96 % of control.
As to `CC(C)c1cc(C(C)C)c(S(=O)(=O)OCC2OC(OC3(COS(=O)(=O)c4c(C(C)C)cc(C(C)C)cc4C(C)C)OC(COS(=O)(=O)c4c(C(C)C)cc(C(C)C)cc4C(C)C)C(O)C3O)C(O)C(O)C2O)c(C(C)C)c1` (stereo unspecified), the T/C is 98 % of control under setting [3], 95 % of control under setting [4] and 102 % of control under setting [5].
On to `C[C@]12CCC(=O)C=C1CC[C@@H]1[C@@H]2[C@@H](O)C[C@@]2(C)[C@H]1CC[C@]2(O)C(=O)COP(=O)(O)OCC1OC(n2ccc(N)nc2=O)C(O)C1O` (stereo partly specified), for which the T/C by setting is: (endpoint: mean survival time, dose: 5.0 mg/kg/injection, schedule: Q01DX005 (ip), vehicle: other) 104 % of control; (endpoint: mean survival time, dose: 10.0 mg/kg/injection, schedule: Q01DX005 (ip), vehicle: other) 110 % of control; (endpoint: mean survival time, dose: 15.0 mg/kg/injection, schedule: Q01DX005 (ip), vehicle: other) 115 % of control; (endpoint: mean survival time, dose: 120.0 mg/kg/injection, schedule: Q01DX005 (ip), vehicle: other) 150 % of control; (endpoint: mean survival time, dose: 240.0 mg/kg/injection, schedule: Q01DX005 (ip), vehicle: other) 162 % of control.
`CC(=O)Nc1ccc(/C=C2\N=C(c3cccc(Cl)c3)OC2=O)cc1`: the T/C is, setting by setting: under setting [6], 90 % of control; under setting [7], 98 % of control; under setting [8], 105 % of control.
`CC(=O)NCCSSCCNC(C)=O`: the T/C was 91 % of control (endpoint: mean survival time, dose: 50.0 mg/kg/injection, schedule: Q04DX002 (ip), vehicle: saline with Tween-80); 95 % of control under setting [6]; 88 % of control under setting [7]; 109 % of control under setting [8].
With `CC(CC(=O)O)C(NC(=O)OCc1ccccc1)C(=O)O` (stereo unspecified), the T/C runs as follows: (endpoint: mean survival time, dose: 75.0 mg/kg/injection, schedule: Q04DX003 (ip), vehicle: saline) 101 % of control; (endpoint: mean survival time, dose: 150.0 mg/kg/injection, schedule: Q04DX003 (ip), vehicle: saline) 95 % of control; (endpoint: mean survival time, dose: 300.0 mg/kg/injection, schedule: Q04DX003 (ip), vehicle: saline) 95 % of control.
With `Cc1ccc([N+](=O)[O-])cc1NC(=O)NNC(=O)CNC(=O)Nc1cccc(C(F)(F)F)c1`, the T/C under setting [4] was 92 % of control; the T/C under setting [5] was 89 % of control; the T/C (endpoint: mean survival time, dose: 400.0 mg/kg/injection, schedule: Q01DX009 (ip), vehicle: saline with Tween-80) was 96 % of control.
As for `C#CC1(c2ccccc2)OCCO1`, the T/C by setting is: (endpoint: mean survival time, dose: 12.5 mg/kg/injection, schedule: Q01DX009 (ip), vehicle: saline with Tween-80) 97 % of control; (endpoint: mean survival time, dose: 25.0 mg/kg/injection, schedule: Q01DX009 (ip), vehicle: saline with Tween-80) 97 % of control; under setting [3], 94 % of control.
As to `CCCCCCCCCCCCc1ccc(CSC(C(=O)OC)C(SCc2ccc(CCCCCCCCCCCC)cc2)C(=O)OC)cc1` (stereo unspecified), the T/C runs as follows: (endpoint: mean survival time, dose: 100.0 mg/kg/injection, schedule: Q01DX009 (ip), vehicle: saline) 102 % of control; (endpoint: mean survival time, dose: 200.0 mg/kg/injection, schedule: Q01DX009 (ip), vehicle: saline) 100 % of control; (endpoint: mean survival time, dose: 400.0 mg/kg/injection, schedule: Q01DX009 (ip), vehicle: saline) 104 % of control.
Take `CN(C)Cc1cc(O)cc(CN(C)C)c1O`: the T/C runs as follows: under setting [9], 98 % of control; under setting [10], 96 % of control; under setting [11], 98 % of control.
Turning to `CN(C)C(=O)CCC(NC(=O)c1ccc(N(C)Cc2cnc3nc(N)nc(N)c3n2)cc1)C(=O)O` (stereo unspecified), the T/C is, setting by setting: (endpoint: mean survival time, dose: 1.0 mg/kg/injection, schedule: Q01DX009 (ip), vehicle: sodium bicarbonate) 103 % of control; (endpoint: mean survival time, dose: 10.0 mg/kg/injection, schedule: Q01DX009 (ip), vehicle: sodium bicarbonate) 108 % of control.
For the molecule `O=[N+]([O-])c1ccc(CNc2ncnc3c2ncn3C2OC(CO)C(O)C2O)cc1` (stereo unspecified), the T/C under setting [9] is 106 % of control, the T/C under setting [10] is 112 % of control and the T/C under setting [11] was 100 % of control.
On to `CC/C=C(\CC)C(=O)O`, for which the T/C runs as follows: under setting [3], 109 % of control; under setting [4], 105 % of control; under setting [5], 105 % of control.
Regarding `Nn1[nH]c(=O)c2nc[nH]c2c1=O`, the T/C runs as follows: (endpoint: median survival time, dose: 15.0 mg/kg/injection, schedule: Q01DX005 (ip), vehicle: saline with Tween-80) 103 % of control; (endpoint: median survival time, dose: 30.0 mg/kg/injection, schedule: Q01DX005 (ip), vehicle: saline with Tween-80) 111 % of control; (endpoint: median survival time, dose: 60.0 mg/kg/injection, schedule: Q01DX005 (ip), vehicle: saline with Tween-80) 102 % of control.
Turning to `O=C(OC(=O)C(F)(F)C(F)(F)F)C(F)(F)C(F)(F)F`, the T/C by setting is: under setting [12], 92 % of control; under setting [13], 103 % of control; under setting [14], 100 % of control.
On to `O=C(O)/C=C/C1=CCCCC1`, for which the T/C was 101 % of control under setting [3], 93 % of control under setting [4] and 93 % of control under setting [5].
As to `Nc1ccc(/C=C/C(=O)Nc2ccc(S(=O)(=O)F)cc2)cc1`, the T/C runs as follows: under setting [1], 98 % of control; under setting [2], 95 % of control.
Take `Cc1cc(=O)ncn1C`: the T/C is 101 % of control under setting [12], 97 % of control under setting [13] and 101 % of control under setting [14].
Take `Cc1c([O-])[n+](Cc2ccccc2)nn1C`: the T/C by setting is: (endpoint: mean survival time, dose: 12.5 mg/kg/injection, schedule: Q01DX009 (ip), vehicle: water) 97 % of control; (endpoint: mean survival time, dose: 25.0 mg/kg/injection, schedule: Q01DX009 (ip), vehicle: water) 98 % of control; (endpoint: mean survival time, dose: 50.0 mg/kg/injection, schedule: Q01DX009 (ip), vehicle: water) 95 % of control; (endpoint: mean survival time, dose: 100.0 mg/kg/injection, schedule: Q01DX009 (ip), vehicle: water) 97 % of control; (endpoint: mean survival time, dose: 200.0 mg/kg/injection, schedule: Q01DX009 (ip), vehicle: water) 93 % of control.
Take `Cc1ccc(N)c(N)c1`: the T/C (endpoint: median survival time, dose: 25.0 mg/kg/injection, schedule: Q01DX009 (ip), vehicle: saline with Tween-80) was 98 % of control; the T/C (endpoint: median survival time, dose: 50.0 mg/kg/injection, schedule: Q01DX009 (ip), vehicle: saline with Tween-80) is 98 % of control; the T/C (endpoint: median survival time, dose: 100.0 mg/kg/injection, schedule: Q01DX009 (ip), vehicle: saline with Tween-80) was 96 % of control.
As for `[Cl][Pt+2][Cl].[NH-]CC1CCCCC1[NH-]` (stereo unspecified), the T/C was 222 % of control (endpoint: mean survival time, dose: 3.12 mg/kg/injection, schedule: Q04DX003 (ip), vehicle: saline with Tween-80); 319 % of control and 175 % of control (endpoint: mean survival time, dose: 6.25 mg/kg/injection, schedule: Q04DX003 (ip), vehicle: saline with Tween-80); 348 % of control and 270 % of control (endpoint: mean survival time, dose: 12.5 mg/kg/injection, schedule: Q04DX003 (ip), vehicle: saline with Tween-80); 309 % of control (endpoint: mean survival time, dose: 25.0 mg/kg/injection, schedule: Q04DX003 (ip), vehicle: saline with Tween-80).
In the case of `C=COCCCCCCCCCCCCCCCCCC`, the T/C by setting is: (endpoint: mean survival time, dose: 100.0 mg/kg/injection, schedule: Q04DX003 (ip), vehicle: other) 108 % of control; (endpoint: mean survival time, dose: 200.0 mg/kg/injection, schedule: Q04DX003 (ip), vehicle: other) 108 % of control; (endpoint: mean survival time, dose: 400.0 mg/kg/injection, schedule: Q04DX003 (ip), vehicle: other) 98 % of control.

For the origin of these results see PubChem BioAssay AID256 (DTP/NCI, 2004).
